{"source": "patent US20140154783A1", "about": "“BIOPROCESSING” (priority 2009, published 2014)", "origin": "cited, not measured here", "key": {"[1]": {"tested_on": "influenza A (avian plague virus)", "settings": "high concentrations; chick embryo fibroblasts infected with influenza A (avian plague virus); Klenk et al. 1972"}, "neuraminidase": {"target": "neuraminidase", "settings": "influenza-infected MDCK cells; Barrere et al. 1997; read-out: Ki, reversible inhibition of neuraminidase"}}, "data": [{"molecule": "O=CC[C@@H](O)[C@H](O)[C@H](O)CO", "note": "[2-deoxy-D-glucose]", "values": [{"measurement": "formation of hemagglutinin, neuraminidase, and mature virions", "setting": "[1]", "value": "inhibited"}]}, {"molecule": "N[C@H]1C(O)O[C@H](CO)[C@@H](O)[C@@H]1O", "note": "(stereo partly drawn) [D-glucosamine]", "values": [{"measurement": "formation of hemagglutinin, neuraminidase, and mature virions", "setting": "[1]", "value": "inhibited"}]}, {"molecule": "COc1cc(C(F)F)ccc1OC1(C(=O)O)CC(O)C(NC(C)=O)C(C(O)C(O)CO)O1", "note": "(stereo not drawn) [4-difluoromethyl-2-methoxy-phenyl-α-ketoside of N-acetylneuraminic acid]", "values": [{"measurement": "Ki", "setting": "neuraminidase", "value": 80, "unit": "µM"}]}]}
